In patent US9573975B2, “Melanoma antigen peptide and uses thereof” (INSERM (INSTITUT NATIONAL DE LA SANTE ET DE LA RECHERCHE …, priority 2012, dated 2017):

Assays:
Format in all cases: cell-based, human
[1] = tested on: MELOE-111-30 specific CD4 T cell clone (5F9-DRβ1*0101); experiment: Peptide stimulation of CD4 T cell clone 5F9, intracellular cytokine staining; settings: DRβ1*0101 restricted T cell clone (5F9)
Method: (§1) FIG. 5: Minimal peptides recognized by MELOE-1 specific CD4 T cell clones. MELOE-1 specific CD4 T cell clones were incubated with various concentrations of the indicated peptides during 5 hours in presence of Brefeldin A. TNF-α production was assessed by intracellular labeling with an anti-TNF-α specific antibody. The core peptide sequence is indicated in bold on each figure panel, and black circles illustrate the best fitting peptide.
(§2) Lymphocytes were stimulated for 5 hours in the presence of brefeldin A (10 μg/mL) either with peptide alone (10 μM) in an autopresentation assay or with B-EBV or HLA-class II expressing melanoma cells pulsed 2 hours with the cognate peptide, at a ratio 1:2. In some experiments, blocking mAb against HLA-DP (clone B7.21 from Dr Charron, UMR940, Paris), HLA-DQ (clone SPVL3, Beckman Coulter) or HLA-DR (clone L243, BD Biosciences) were added at a concentration of 12.5 μg/ml. Cells were then stained with APC-conjugated anti-CD4 mAb, fixed with 4% paraformaldehyde, labeled with PE-conjugated anti-cytokine mAb and analyzed by flow cytometry.
(§3) We also documented the T helper profile of each T cell clone, by stimulating the CD4 T cell clones with the cognate peptide, and analyzing cytokine production. All the clones expressed Th1 cytokines (TNFα, IFNγ, IL2 and GM-CSF). On the contrary, these clones differ in their expression of Th2 cytokines. Indeed, the two DQ2 restricted T cell clones (9C12 and 4E2) and the DR1 restricted one (5F9) also strongly express two Th2 cytokines (IL4, and IL13), whereas the DR11-restricted T cell clone only weakly expressed IL4 (Table IV). None of the CD4 T cell expresses IL10 or IL5 at a significant level.
(§4) Three shorter peptides were better recognized by the DQ2-restricted 9C12 T cell clone, the shortest one being MELOE-17-19 (13-mer), recognized with an EC50 of 100 nM. The deletion of the two amino acids in C-term strongly reduces T cell clone recognition. […] Nonetheless all of these clones recognized a series of shortened peptides, thus we cannot formally assess that the shortest ones will be the exact peptides naturally presented on class II molecules.

[2] = tested on: CD4 T cells in PBMC from healthy donors; experiment: PBMC from healthy donors stimulated with MELOE-1, restimulated with overlapping peptides, CD4/TNF-α staining; settings: for healthy donors in whom CD4 responses against the region were detected: seven healthy donors, TNFα production
Method: FIG. 1: (A) Percentages of TNF-α producing CD4 T cells among positive microcultures. Fourteen days after PBMC stimulation with MELOE-1 whole polypeptide (2-46), microcultures were re-stimulated with each indicated peptide during 5 hours. TNF-α production was then assessed by a double labeling TNF-α-CD4. Results were analyzed with a non-parametric test (Kruskal-Wallis) followed by a Dunns post-test. (B) Frequency of microcultures containing CD4 T cells specific for MELOE-1 peptides (assessed by TNF-α intracellular staining after re-stimulation with the 4 indicated peptides). 624 microcultures (from 7 healthy donors) were analyzed by a contingency table followed by a Fisher exact test.
PBMC from healthy donors were stimulated with 10 μM of MELOE-1. After 14 days, the presence of CD4 T cells specific for the different regions of MELOE-1 was assessed by restimulating cells with MELOE-12-21, MELOE-111-30, MELOE-118-37 and MELOE-126-46 peptides, followed by CD4/TNF-α double staining and flow cytometry analysis. Between brackets is indicated the mean % of TNF-α producing CD4 T cells, in positive microcultures. NA: not available.
(§5) PBMC from healthy donors or melanoma patients (2·10^5 cells/well) were cultured for 14 days with 10 μM of MELOE-1 whole antigen (46 amino acids) in RPMI medium supplemented with 8% HS, 50 IU/ml of rIL-2 (Chiron, France) and L-Glutamin, in 96-well multiplates. Micro cultures were then restimulated individually with each overlapping peptide (MELOE-12-21, MELOE-111-30, MELOE-118-37, MELOE-126-46 or MELOE-122-46 for melanoma patients) in the presence of 10 μg/mL brefeldin A for 5 hours and the percentage of CD4^+ specific T cells was assessed by TNF-α, IFN-γ or IL-4 intracellular staining A negative control without peptide was included in all experiments.
as §2
Our purpose was to look for the existence of class II helper epitopes all along MELOE-1 sequence (SEQ ID NO: 20), in order to document the immunogenicity of the different regions of this melanoma antigen. We stimulated 2·10^7 PBMC from seven healthy donors with MELOE-1 whole antigen and tested, after a 14-day culture period the presence of CD4 T cells specific for each region of the protein. Microcultures were screened for TNFα production by CD4+ T cells, after restimulation with four MELOE-1 derived overlapping peptides (Table I), in an autopresentation assay. […] On the contrary, the central region 18-37, containing an already described DR11-restricted epitope (24-37) located just at the end of this 20-mer peptide (Rogel et al., 2011), induced specific responses in microcultures deriving from only 2/7 donors (HD9 and HD17, both expressing the DR11 element). In these two donors, we detected 6 and 7% of positive microcultures, containing between 0.6 to 3.7% of TNFα producing CD4 T cells.

[3] = tested on: MELOE-126-46 specific CD4 T cell clone (4E2-DQβ1*0201); experiment: Peptide stimulation of CD4 T cell clone 4E2, intracellular cytokine staining
Method: as §1, §2, §3, §4

[4] = tested on: MELOE-1 specific T cell clones; experiment: HLA restriction of MELOE-1 specific T cell clones (anti-HLA blocking antibodies, HLA-matched B-EBV cell lines); settings: T cell clone 4E2 (from HD25)
Method: FIG. 3: HLA-restricting element of MELOE-1 specific T cell clones and reactivity against HLA-matched melanoma cell lines. The HLA restriction of MELOE-1 specific T cell clones was first assessed using anti-HLA blocking antibodies (upper panel). T cell clones were stimulated for 5 hours in the presence of brefeldin A (10 μg/mL) either with peptide alone (10 μM) in an autopresentation assay and in presence or not of blocking antibodies at a concentration of 12.5 μg/mL. HLA restriction was confirmed with HLA-matched B-EBV cell lines pulsed 2 hrs with the cognate peptide, at a ratio 1:2 (middle panel). Reactivity of each T cell clone against HLA-class II expressing melanoma cells was assessed, in presence or not of exogeneous peptide (lower panel). After 5 hours of stimulation, cells were then stained with APC-conjugated anti-CD4 mAb, fixed with 4% paraformaldehyde, labeled with PE-conjugated anti-TNF-α mAb and analyzed by flow cytometry.
as §2
In order to formally characterize the recognized epitopes, we derived CD4 T cell clones specific for each region of MELOE-1 by limiting dilution, from microcultures of healthy donors or melanoma patients, containing at least 0.5% of specific CD4 T cells. We succeeded to derive CD4 specific T cell clones from HD17, HD22, HD25 and Pt≠3 microcultures, which were reactive against MELOE-12-21 (HD22), MELOE-111-30 (HD17 and Pt≠3) and MELOE-126-46 (HD25). From each cloning experiment, we obtained between one and ten reactive CD4 T cell clones, that turned out to be the same clonotype after CDR3B sequencing (Table IV). A single CD4 T cell clone for each specificity was used for further experiments. The HLA-restriction was determined for each T cell clone, first by using HLA-class II blocking monoclonal antibodies (FIG. 3, upper panel), and further by testing the recognition of HLA-matched B-EBV cell lines loaded with each recognized long peptide (FIG. 3 middle panel). The two T cell clones named 9C12 and 4E2, derived from HD22 and HD25 and specific for MELOE-12-21 and MELOE-126-46 were restricted by the HLA-DQβ1*0202 and the DQβ1*0201 molecules respectively. […]

[5] = tested on: CD4 T cells in PBMC from melanoma patients; experiment: PBMC from melanoma patients stimulated with MELOE-1, restimulated with peptides, CD4/IFN-γ and CD4/IL4 staining
Method: FIG. 2: (A) Percentages of cytokine producing CD4 T cells among positive microcultures. Fourteen days after PBMC stimulation with MELOE-1 whole polypeptide (2-46), microcultures were re-stimulated with each indicated peptide during 5 hours. IFN-γ (left panel) and IL4 (right panel) production was then assessed by a triple labeling IFN-γ-IL4-CD4. Results were analyzed with a non-parametric test (Kruskal-Wallis) followed by a Dunns post-test. (B) Frequency of microcultures containing CD4 T cells specific for MELOE-1 peptides (assessed by IFN-γ or IL4 intracellular staining after re-stimulation with the 3 indicated peptides). 576 microcultures (from 10 melanoma patients) were analyzed by a contingency table followed by a Fisher exact test.
PBMC from melanoma patients were stimulated with 10 μM of MELOE-1. After 14 days, the presence of CD4 T cells specific for the different regions of MELOE-1 was assessed by restimulating cells with MELOE-12-21, MELOE-111-30 and MELOE-122-46 peptides, followed by CD4/IFN-γ double staining for the detection of Th1 responses, and by CD4/IL4 double staining for Th2 responses. Between brackets is indicated the mean % of cytokine producing CD4 T cells, in positive microcultures.
as §5, §2
In order to confirm the immunogenicity of each MELOE-1 regions in melanoma patients, we stimulated melanoma patients PBMC with the MELOE-1 whole protein, and tested the reactivity of stimulated lymphocytes towards the three most immunogenic regions: 2-21, 11-30, and 22-46. For this study, instead of challenging microcultures with the 18-37 peptide, that appeared poorly immunogenic, we extended the C-terminus region from 26-46 to 22-46, in order to also detect responses to our previously described HLA-DR11-restricted epitope (24-37). […] We tested the induction of CD4 specific responses from MELOE-1 stimulated PBMC of 10 melanoma patients. We documented CD4 responses specific for the central region of MELOE-1 (11-30) for 7/9 patients, whereas responses specific for MELOE-12-21 and MELOE-122-46 were respectively detected in 4/9 and 5/9 patients (Table III). These responses were mainly Th1 responses (IFN-g production) while less frequent Th2 responses specific for the three regions of MELOE-1 were detected in 3/9 patients for MELOE-12-21, 2/9 patients for MELOE-111-30 and 5/9 patients for MELOE-122-46 (Table III). […] Concerning Th2 responses, much less frequent, the C-term region appeared to induce more frequently the growth of IL-4 producing CD4 T cells than the two other regions (FIG. 2A). […]

[6] = clone 4E2, cognate peptide 10 μM, 5 hours

TSREQFLPSEGAA [MELOE-111-23]
recognition by T cell clone (TNF-α production) [1]: optimal shorter peptides

PWHPSERISSTLNDECWPASL [MELOE-126-46]
mean % of TNF-α producing CD4 T cells, in positive microcultures ([2]; donor HD22): (1% ± 0.1) | healthy donors in whom CD4 responses against the region were detected [2]: 4 out of 7 | Cytokine profile: GM-CSF [3, 6]: GM-CSF ^high | Cytokine profile: IFN [3, 6]: IFN ^high | Cytokine profile: IL2 [3, 6]: IL2 ^high | Cytokine profile: IL4 [3, 6]: IL4 ^high | Cytokine profile: IL5 [3, 6]: IL5 ^low | Cytokine profile: IL10 [3, 6]: IL10 ^neg | Cytokine profile: IL13 [3, 6]: IL13 ^high | Cytokine profile: TNF ([3]; clone 4E2, cognate peptide 10 μM, 5 hours, autopresentation): TNF ^high | HLA-restricting element of the peptide-specific T cell clone [4]: DQβ1*0201

PSEGAACPPWHPSERISSTL [MELOE-118-37]
mean % of TNF-α producing CD4 T cells, in positive microcultures ([2]; donor HD17): (3% ± 0.7) | healthy donors in whom CD4 responses against the region were detected [2]: 2/7

RISSTLNDECWPA [Peptide 32-44]
recognition by T cell clone (TNF-α production) ([3]; T cell clone 4E2, compared with 31-44): recognized to a lower extent

AACPPWHPSERISSTLNDECWPASL [MELOE-122-46]
mean % of cytokine producing CD4 T cells, in positive microcultures (IFN-γ, Th1) ([5]; Pt ≠ 1): (4.8% ± 7.2) | mean % of cytokine producing CD4 T cells, in positive microcultures (IL4, Th2) ([5]; Pt ≠ 1): (0.8% ± 0.3) | mean % of cytokine producing CD4 T cells, in positive microcultures (IFN-γ, Th1) ([5]; Pt ≠ 2): (0.6% ± 0.02) | mean % of cytokine producing CD4 T cells, in positive microcultures (IFN-γ, Th1) ([5]; Pt ≠ 3): (1.9% ± 1.3) | mean % of cytokine producing CD4 T cells, in positive microcultures (IL4, Th2) ([5]; Pt ≠ 5): (0.8%) | mean % of cytokine producing CD4 T cells, in positive microcultures (IFN-γ, Th1) ([5]; Pt ≠ 7): (2.9% ± 3.5) | mean % of cytokine producing CD4 T cells, in positive microcultures (IL4, Th2) ([5]; Pt ≠ 7): (1.5% ± 0.7) | mean % of cytokine producing CD4 T cells, in positive microcultures (IFN-γ, Th1) ([5]; Pt ≠ 8): (0.5%) | mean % of cytokine producing CD4 T cells, in positive microcultures (IL4, Th2) ([5]; Pt ≠ 8): (0.6%) | mean % of cytokine producing CD4 T cells, in positive microcultures (IL4, Th2) ([5]; Pt ≠ 9): (0.7% ± 0.15) | Th1 responses, share of tested microcultures ([5]; of 576 tested microcultures, melanoma patients): 9.6% | melanoma patients with CD4 specific responses (mainly Th1, IFN-g production) ([5]; responding/tested patients): 5/9 | melanoma patients with Th2 responses ([5]; responding/tested patients, IL4): 5/9

SREQFLPSEGAAC [MELOE-112-24]
recognition by T cell clone (TNF-α production) [1]: optimal shorter peptides
